This note sets out measurements from ChEMBL document CHEMBL1144834, “Acremolides A-D, lipodepsipeptides from an Australian marine-derived fungus, Acremonium sp” (2008).

The test system of one experiment is Bacillus subtilis. The experiment is described as follows: Antibacterial activity against Bacillus subtilis. In kind it is functional, organism-based.
A further experiment concerns Candida albicans. In words: Antifungal activity against Candida albicans. It counts as functional, organism-based.
The test system of a further experiment is NS1. The experiment is described as follows: (§1) Cytotoxicity against mouse NS1 cells. In kind it is functional.
The nature of experiment [1]: as §1. It counts as functional.

Active and inactive are the calls of the source. No cut-off for these calls is given here.

Regarding `CC[C@@H](C)[C@H]1NC(=O)C(C)C(O)CC(C(C)CCCCC(C)O)OC(=O)[C@@H]2CCCN2C1=O` (stereo not given in full), the result in the experiment on Bacillus subtilis, in the experiment with Candida albicans and in the experiment with NS1 was inactive.
On to `CC(O)CCCCC(C)C1CC(O)C(C)C(=O)N[C@H](Cc2ccccc2)C(=O)N2CCC[C@H]2C(=O)O1` (stereo not given in full), for which the outcome with Bacillus subtilis, with Candida albicans and with NS1 was inactive.
In the case of `CC(O)CCCCC(C)C1CC(O)C(C)C(=O)N[C@H](C(C)C)C(=O)N2CCC[C@H]2C(=O)O1` (stereo not given in full), the result in the experiment with Bacillus subtilis, in the experiment with Candida albicans and in the experiment with NS1 was inactive.
The compound `CC(=O)O[C@H]1C(=O)/C=C/C(=O)[C@@]23C(=O)N[C@@H](Cc4c[nH]c5ccccc45)[C@@H]2C(C)=C(C)[C@@H](O)[C@@H]3/C=C/C[C@H](C)/C=C\1C` [19-O-ACETYLCHAETOGLOBOSIN B] returned an LD99 in experiment [1] of 1.6 µg/mL.
On to `CC(=O)CCCCC(C)C1CC(O)C(C)C(=O)N[C@H](Cc2ccccc2)C(=O)N2CCC[C@H]2C(=O)O1` (stereo not given in full), for which the result in the experiment with Bacillus subtilis, with Candida albicans and in the experiment with NS1 was inactive.
With `C=C1[C@@H](C)[C@H]2[C@H](Cc3c[nH]c4ccccc34)NC(=O)[C@]23C(=O)/C=C/C(=O)[C@H](OC(C)=O)/C(C)=C\[C@@H](C)C/C=C/[C@H]3[C@@H]1O`, the LD99 in experiment [1] was determined as 0.8 µg/mL.
`C/C=C/c1cccc(O)c1CO`: in the experiment with NS1, the result was inactive.
